These are literature values, as cited in US20090221462A1, “Fragrance compositions” (priority 2005, published 2009).

For the data set the following is noted: at 25° C.

Consider `O=C(O)C=Cc1ccccc1` [cinnamic acid], for which, where the note is “cis isomer”, the “pKa (cis)” value was 3.89. In general, pKa refers to the pH at which an ionisable group is half protonated. Take `O=C(O)Cc1ccccc1` [phenylacetic acid]: the pKa is listed as 4.28.
